What was measured:
[1] = test system: Monocotyledonous and dicotyledonous test plants; assay: Example B1: herbicidal action prior to emergence (pre-emergence), 500 g/ha; format: in vivo; conditions: 13 days after application, 0 = no damage, 100 = plants completely dead
Outline: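 Pre-emergence test with monocot and dicot species sown in standard compost. Compound was track-sprayed onto the soil surface at 500 g/ha in 50% acetone/water with 0.5% Tween 20 (1000 l/ha equivalent). Damage was scored visually 13 days after application on a 0–100% scale, where 100 means plants completely dead.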

[2] = test system: Monocotyledonous and dicotyledonous test plants; assay: Example B3: herbicidal action prior to emergence (pre-emergence), 96-cell seed trays, 1000 g/ha; format: in vivo; set-up: key: 0 is no damage to plant; 5 is total damage to plant; conditions: 9 days after application
Outline: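 Soil-surface pre-emergence spray at 1000 g/ha in water with 10% DMSO (1000 l/ha equivalent), applied one day after sowing in sterilised soil. Plants kept in a climatic chamber (24/19 °C day/night, 13 h light, 50-60% humidity); damage scored visually 0-5 at 9 days after application.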

[3] = test system: Amaranthus retroflexus (redroot pigweed); assay: Example B2: herbicidal action post emergence, 500 g/ha; format: in vivo; conditions: applied to the foliage, 13 days after application, 0 is no damage to plants, 100 is plants completely dead
Procedure: (§1) Monocotyledonous and dicotyledonous test plants were sown in seed trays in standard compost and were grown for eight days. The trays were watered twice daily or as required. The chemicals were applied by track sprayer to the foliage. The application was carried out with an aqueous suspension of the test substances, prepared as a formulation of 50% acetone in water with 0.5% Tween 20™ (CAS RN 9005-64-5), to achieve a field equivalent of 1000 l/ha. The application rate of the test substances was 500 g/ha. A visual assessment of the herbicidal effect was made at 13 days after application. The following percentage scale was used for assessment: 0, 5, 10, 20, 30, 40, 50, 60, 70, 80, 90, 95, 100 (where O is no damage to plants and 100 is plants are completely dead).

[4] = test system: Echinochloa crus-galli (barnyard grass); assay: as above; format: in vivo; conditions: applied to the foliage, 13 days after application, 0 is no damage to plants, 100 is plants completely dead
Procedure: as §1

[5] = test system: Stellaria media (chickweed); assay: as above; format: in vivo; conditions: applied to the foliage, 13 days after application, 0 is no damage to plants, 100 is plants completely dead
Procedure: as §1

[6] = test system: Alopecurus myosuroides (slender foxtail); assay: as above; format: in vivo; conditions: applied to the foliage, 13 days after application, 0 is no damage to plants, 100 is plants completely dead
Procedure: as §1

[7] = Amaranthus retroflexus (redroot pigweed)

In the case of Cn1nc(C(F)(F)F)c(C(Cl)S(=O)(=O)c2ncc(Br)s2)c1Cl (stereo not shown) [Compound No. 1.030, 5-bromo-2-[chloro-(5-chloro-1-methyl-3-trifluoromethyl-1H-pyrazol-4-yl)-methanesulfonyl]-thiazole], the melting point is reported as 78 to 79.5 °C.

Cn1nc(C(F)(F)F)c(C(F)(F)S(=O)(=O)c2ncc(Br)s2)c1Cl [Compound No. 1.033, 5-bromo-2-[(5-chloro-1-methyl-3-trifluoromethyl-1H-pyrazol-4-yl)-difluoro-methanesulfonyl]-thiazole] gave a melting point of 186 to 188 °C.

In the case of Cn1nc(C(F)(F)F)c(CSc2ncc(C(N)=O)s2)c1OCC(F)(F)F [1.121, 2-[1-methyl-5-(2,2,2-trifluoro-ethoxy)-3-trifluoromethyl-1H-pyrazol-4-ylmethylsulfanyl]-thiazole-5-carboxylic acid amide], the melting point is reported as 118 to 120 °C.

In the case of CC(c1c(C(F)(F)F)nn(C)c1OCC(F)(F)F)S(=O)(=O)c1ncc(Cl)s1 (racemic) [1.096], the “ALOMY herbicidal effect (visual assessment, percentage scale)” value ([1]; Alopecurus myosuroides (slender foxtail)) is reported as 95%, the “AMARE herbicidal effect (visual assessment, percentage scale)” value [1, 7] is reported as 95% and the “ECHCG herbicidal effect (visual assessment, percentage scale)” value ([1]; Echinochloa crus-galli (barnyard grass)) is reported as 95%. For the same compound, the “STEME herbicidal effect (visual assessment, percentage scale)” value ([1]; Stellaria media (chickweed)) was 95%, the “AGSTE herbicidal effect (visual assessment, scale 0-5)” value ([2]; Agrostis tenius (Colonial bentgrass)) was 5 and the “AMARE herbicidal effect (visual assessment, scale 0-5)” value [2, 7] was 5. The “DIGSA herbicidal effect (visual assessment, scale 0-5)” value ([2]; Digitaria sanguinalis (hairy finger-grass)) was 5, the “POATR herbicidal effect (visual assessment, scale 0-5)” value ([2]; Poa trivialis (rough blue grass)) was 5 and the “SETIT herbicidal effect (visual assessment, scale 0-5)” value ([2]; Setaria italica (foxtail millet)) was 5. The “AMARE, visual assessment of the herbicidal effect” value [3] was 80%, the “ECHCG, visual assessment of the herbicidal effect” value [4] was 80% and the “STEME, visual assessment of the herbicidal effect” value [5] was 70%. The “ALOMY, visual assessment of the herbicidal effect” value [6] was 90%.

Reference: US20090048112A1, “Novel Herbicides” (SYNGENTA LIMITED, priority 2005, published 2009)
